Measurements taken from US11498920B2, “4-(1H-imidazol-5-yl)-1H-pyrrolo[2, 3-b] pyridines for use in the treatment of leukaemias, lymphomas and solid tumors” (MASARYKOVA UNIVERZITA, priority 2018, dated 2022).

Tested on: primary CLL cells
Assay: Cytotoxicity, TMRE flow cytometry viability, primary CLL cells (Example II.1)
Format: cell-based
Details: Homo sapiens, CLL cell, 6 hours, TMRE positive cells normalized to control, ratio to PF670462, <1 = higher cytotoxicity than PF670462, read-out: Viability of cells, Compound of formula I (100 μM), relative to PF670462 (100 μM), CLL primary cells
Protocol: (§1) The leukemia and lymphoma-derived cell lines [MEC-1 cell line (derived from chronic lymphocytic leukemia—CLL), Nalm-16 (acute lymphocytic leukemia—ALL), K562 (chronic myeloid leukemia—CML), HL-60 (acute myeloid leukemia—AML), Maver-1 and Mino (mantle cell lymphoma—MCL), BL-41 (Burkitt lymphoma—BL), WSU-NHL (follicular lymphoma—FL), SUDHL (diffuse large B-cell lymphoma—DLBCL)], primary CLL cells and nonmalignant control primary cells were cultured in suspension in flasks under the following conditions: RPMI 1640 medium (Hyclone) supplemented with 10% fetal bovine serum (FBS, Gibco) and 1% penicillin/streptomycin (Life Technologies), 37° C., 5% CO2 and 95% relative humidity, with optimal culture cell density 5×10^6 cells/mL in case of primary cells and 0.5-1×10^6 cells/mL in case of cell lines. The adherent cell lines [A375 (derived from malignant melanoma), MDA-MB-231 and MCF-7 (breast cancer), MIA-PA-CA and PANC1 (pancreatic cancer), PC3 (prostate cancer), OVCAR4 (ovarian cancer) and HEPG2 (hepatocellular carcinoma)] were cultured on plates under the same conditions using RPMI1640 or DMEM medium (Gibco) according to instructions provided by the distributor (DSMZ/ATCC).
(§2) Cytotoxicity of compounds of formula I was tested in two models representative for leukemia (primary CLL cells) and lymphoma (Maver-1 cells). The primary CLL cells and Maver-1 cells (MCL-derived) were incubated with inhibitors at 100 μM concentration or corresponding amount of solvent (DMSO, Sigma Aldrich) as 0.1×10^6 cells/200 μl per well in a 96-well plate. Experiments were performed in technical duplicates. Viability of cells was assessed after 6 hours in case of primary CLL cells and after 24 hours in case of Maver-1 cells.
(§3) Apoptosis-induced reduction of mitochondrial potential is detected as lower TMRE fluorescence. […] Relative values are presented, showing ratio to the effect of PF670462 (as the closest prior art). Relative value <1 indicates a higher cytotoxicity than PF670462.

| Structure (SMILES) | viability at 100 µM [%] |
| --- | --- |
| Fc1cccc(-c2ncn(C3CCCCC3)c2-c2ccnc3[nH]ccc23)c1 [Preparative Example 1, 4-(1-cyclohexyl-4-(3-fluorophenyl)-1H-imidazol-5-yl)-1H-pyrrolo[2,3-b]pyridine] | 18 |
| Fc1ccccc1-c1ncn(C2CCCCC2)c1-c1ccnc2[nH]ccc12 [Preparative Example 2, 4-(1-cyclohexyl-4-(2-fluorophenyl)-1H-imidazol-5-yl)-1H-pyrrolo[2,3-b]pyridine] | 37 |
| Fc1ccc(-c2ncn(C3CCCCC3)c2-c2ccnc3[nH]ccc23)c(F)c1 [Preparative Example 4, 4-(1-cyclohexyl-4-(2,4-difluorophenyl)-1H-imidazol-5-yl)-1H-pyrrolo[2,3-b]pyridine] | 21 |
| Fc1ccc(-c2ncn(CCN3CCOCC3)c2-c2ccnc3[nH]ccc23)cc1 [Preparative Example 12, 4-(2-(4-(4-fluorophenyl)-5-(1H-pyrrolo[2,3-b]pyridin-4-yl)-1H-imidazol-1-yl)ethyl)morpholine] | 80 |
| Fc1ccc(-c2ncn(C3CCOCC3)c2-c2ccnc3[nH]ccc23)cc1 [Preparative Example 13, 4-(4-(4-fluorophenyl)-1-(tetrahydro-2H-pyran-4-yl)-1H-imidazol-5-yl)-1H-pyrrolo[2,3-b]pyridine] | 47 |
| CC(C)CCn1cnc(-c2ccc(F)cc2)c1-c1ccnc2[nH]ccc12 [Preparative Example 15, 4-(4-(4-fluorophenyl)-1-isopentyl-1H-imidazol-5-yl)-1H-pyrrolo[2,3-b]pyridine] | 13 |
| Fc1ccc(-c2ncn(C3CCOC3)c2-c2ccnc3[nH]ccc23)cc1 (centres unmarked) [Preparative Example 16, 4-(4-(4-fluorophenyl)-1-(tetrahydrofuran-3-yl)-1H-imidazol-5-yl)-1H-pyrrolo[2,3-b]pyridine] | 67 |
| Fc1ccc(-c2ncn(C3CCC3)c2-c2ccnc3[nH]ccc23)cc1 [Preparative Example 17, 4-(1-cyclobutyl-4-(4-fluorophenyl)-1H-imidazol-5-yl)-1H-pyrrolo[2,3-b]pyridine] | 52 |
| Fc1ccc(-c2ncn(C3CCCC3)c2-c2ccnc3[nH]ccc23)cc1 [Preparative Example 18, 4-(1-cyclopentyl-4-(4-fluorophenyl)-1H-imidazol-5-yl)-1H-pyrrolo[2,3-b]pyridine] | 33 |
| CC(C)OCCn1cnc(-c2ccc(F)cc2)c1-c1ccnc2[nH]ccc12 [Preparative Example 20, 4-(4-(4-fluorophenyl)-1-(2-isopropoxyethyl)-1H-imidazol-5-yl)-1H-pyrrolo[2,3-b]pyridine] | 68 |
| CN(C)CCn1cnc(-c2ccc(F)cc2)c1-c1ccnc2[nH]ccc12 [Preparative Example 21] | 72 |
| Cn1cnc(-c2ccc(F)cc2)c1-c1ccnc2[nH]ccc12 [Preparative Example 25] | 81 |
| CO[C@H]1CC[C@H](n2cnc(-c3ccc(F)cc3)c2-c2ccnc3[nH]ccc23)CC1 [Preparative Example 28, 4-(4-(4-fluorophenyl)-1-(trans-4-methoxycyclohexyl)-1H-imidazol-5-yl)-1H-pyrrolo[2,3-b]pyridine] | 67 |
| C=C(C)Cn1cnc(-c2ccc(F)cc2)c1-c1ccnc2[nH]ccc12 [Preparative Example 30, 4-(4-(4-fluorophenyl)-1-(2-methylallyl)-1H-imidazol-5-yl)-1H-pyrrolo[2,3-b]pyridine] | 69 |
| O[C@H]1CC[C@@H](n2cnc(-c3ccc(F)cc3)c2-c2ccnc3[nH]ccc23)CC1 [Preparative Example 31] | 78 |
| O[C@H]1CC[C@H](n2cnc(-c3ccc(F)cc3)c2-c2ccnc3[nH]ccc23)CC1 [Preparative Example 32, trans-4-(4-(4-fluorophenyl)-5-(1H-pyrrolo[2,3-b]pyridin-4-yl)-1H-imidazol-1-yl)cyclohexan-1-ol] | 67 |
| c1cncc(-c2ncn(C3CCCCC3)c2-c2ccnc3[nH]ccc23)c1 [Preparative Example 44] | 81 |
| CC(=O)N1CCC(n2cnc(-c3ccc(F)cc3)c2-c2ccnc3[nH]ccc23)CC1 [Preparative Example 68, 1-(4-(4-(4-fluorophenyl)-5-(1H-pyrrolo[2,3-b]pyridin-4-yl)-1H-imidazol-1-yl)piperidin-1-yl)ethan-1-one] | 81 |
| CC(=O)N[C@H]1CC[C@H](n2cnc(-c3ccc(F)cc3)c2-c2ccnc3[nH]ccc23)CC1 [Preparative Example 78, N-(trans-4-(4-(4-fluorophenyl)-5-(1H-pyrrolo[2,3-b]pyridin-4-yl)-1H-imidazol-1-yl)cyclohexyl)acetamide] | 87 |
| CS(=O)(=O)N[C@H]1CC[C@H](n2cnc(-c3ccc(F)cc3)c2-c2ccnc3[nH]ccc23)CC1 [Preparative Example 79, N-(trans-4-(4-(4-fluorophenyl)-5-(1H-pyrrolo[2,3-b]pyridin-4-yl)-1H-imidazol-1-yl)cyclohexyl)methanesulfonamide] | 86 |
| Fc1ccc(-c2ncn(Cc3ccncc3)c2-c2ccnc3[nH]ccc23)cc1 [Preparative Example 83, 4-(4-(4-fluorophenyl)-1-(pyridin-4-ylmethyl)-1H-imidazol-5-yl)-1H-pyrrolo[2,3-b]pyridine] | 78 |
| Fc1ccc(-c2ncn(C34CCN(CC3)C4)c2-c2ccnc3[nH]ccc23)cc1 [Preparative Example 86, 4-(1-((1r,4r)-1-azabicyclo[2.2.1]heptan-4-yl)-4-(4-fluorophenyl)-1H-imidazol-5-yl)-1H-pyrrolo[2,3-b]pyridine] | 76 |
| CN1CCC(O)(Cn2cnc(-c3ccc(F)cc3)c2-c2ccnc3[nH]ccc23)CC1 [Preparative Example 119, 4-((4-(4-fluorophenyl)-5-(1H-pyrrolo[2,3-b]pyridin-4-yl)-1H-imidazol-1-yl)methyl)-1-methylpiperidin-4-ol] | 87 |
| Fc1ccc(-c2ncn(Cc3cnsc3)c2-c2ccnc3[nH]ccc23)cc1 [Preparative Example 130, 4-((4-(4-fluorophenyl)-5-(1H-pyrrolo[2,3-b]pyridin-4-yl)-1H-imidazol-1-yl)methyl)isothiazole] | 89 |
| Cn1ccc(Cn2cnc(-c3ccc(F)c(Cl)c3)c2-c2ccnc3[nH]ccc23)n1 [Preparative Example 143, 4-(4-(3-chloro-4-fluorophenyl)-1-((1-methyl-1H-pyrazol-3-yl)methyl)-1H-imidazol-5-yl)-1H-pyrrolo[2,3-b]pyridine] | 66 |
| O[C@H]1CCC[C@H](n2cnc(-c3ccc(F)cc3)c2-c2ccnc3[nH]ccc23)C1 [Preparative Example 158, (1S,3S)-3-(4-(4-fluorophenyl)-5-(1H-pyrrolo[2,3-b]pyridin-4-yl)-1H-imidazol-1-yl)cyclohexan-1-ol] | 76 |

Tested on: Maver-1 cells (mantle cell lymphoma)
Assay: Cytotoxicity, TMRE flow cytometry viability, Maver-1 cells (Example II.1)
Format: cell-based
Details: Homo sapiens, Maver1, 24 hours, TMRE positive cells normalized to control, ratio to PF670462, <1 = higher cytotoxicity than PF670462, read-out: Viability of cells, Compound of formula I (100 μM), relative to PF670462 (100 μM), Maver-1 cells (mantle cell lymphoma)
Protocol: as §1, §2, §3

| Structure (SMILES) | viability at 100 µM [%] |
| --- | --- |
| Fc1cccc(-c2ncn(C3CCCCC3)c2-c2ccnc3[nH]ccc23)c1 [Preparative Example 1, 4-(1-cyclohexyl-4-(3-fluorophenyl)-1H-imidazol-5-yl)-1H-pyrrolo[2,3-b]pyridine] | 6 |
| Fc1ccccc1-c1ncn(C2CCCCC2)c1-c1ccnc2[nH]ccc12 [Preparative Example 2, 4-(1-cyclohexyl-4-(2-fluorophenyl)-1H-imidazol-5-yl)-1H-pyrrolo[2,3-b]pyridine] | 32 |
| Fc1ccc(-c2ncn(C3CCCCC3)c2-c2ccnc3[nH]ccc23)c(F)c1 [Preparative Example 4, 4-(1-cyclohexyl-4-(2,4-difluorophenyl)-1H-imidazol-5-yl)-1H-pyrrolo[2,3-b]pyridine] | 21 |
| OC1(Cn2cnc(-c3ccc(F)cc3)c2-c2ccnc3[nH]ccc23)CCC1 [Preparative Example 91, 1-((4-(4-fluorophenyl)-5-(1H-pyrrolo[2,3-b]pyridin-4-yl)-1H-imidazol-1-yl)methyl)cyclobutan-1-ol] | 69 |
| Cn1cc(Cn2cnc(-c3ccc(F)cc3)c2-c2ccnc3[nH]ccc23)cn1 [Preparative Example 93] | 75 |
| Fc1ccc(-c2ncn(Cc3cscn3)c2-c2ccnc3[nH]ccc23)cc1 [Preparative Example 127, 4-((4-(4-fluorophenyl)-5-(1H-pyrrolo[2,3-b]pyridin-4-yl)-1H-imidazol-1-yl)methyl)thiazole] | 72 |
| CC(c1cnn(C)c1)n1cnc(-c2ccc(F)cc2)c1-c1ccnc2[nH]ccc12 (centres unmarked) [Preparative Example 145] | 42 |
| Cc1ncc(Cn2cnc(-c3ccc(F)cc3)c2-c2ccnc3[nH]ccc23)s1 [Preparative Example 152, 5-((4-(4-fluorophenyl)-5-(1H-pyrrolo[2,3-b]pyridin-4-yl)-1H-imidazol-1-yl)methyl)-2-methylthiazole] | 62 |
| Fc1ccc(-c2ncn(Cc3ccccc3)c2-c2ccnc3[nH]ccc23)nc1 [Preparative Example 184, 4-(1-benzyl-4-(5-fluoropyridin-2-yl)-1H-imidazol-5-yl)-1H-pyrrolo[2,3-b]pyridine] | 57 |
